Molecular target: T1, ENaC (Homo sapiens, UniProt P37088+P51168+P51170)
T1 construct: endogenous in cells; host or cells: well-differentiated human bronchial epithelial (HBE) cells at air-liquid interface
T1 sequence (P37088 1-669): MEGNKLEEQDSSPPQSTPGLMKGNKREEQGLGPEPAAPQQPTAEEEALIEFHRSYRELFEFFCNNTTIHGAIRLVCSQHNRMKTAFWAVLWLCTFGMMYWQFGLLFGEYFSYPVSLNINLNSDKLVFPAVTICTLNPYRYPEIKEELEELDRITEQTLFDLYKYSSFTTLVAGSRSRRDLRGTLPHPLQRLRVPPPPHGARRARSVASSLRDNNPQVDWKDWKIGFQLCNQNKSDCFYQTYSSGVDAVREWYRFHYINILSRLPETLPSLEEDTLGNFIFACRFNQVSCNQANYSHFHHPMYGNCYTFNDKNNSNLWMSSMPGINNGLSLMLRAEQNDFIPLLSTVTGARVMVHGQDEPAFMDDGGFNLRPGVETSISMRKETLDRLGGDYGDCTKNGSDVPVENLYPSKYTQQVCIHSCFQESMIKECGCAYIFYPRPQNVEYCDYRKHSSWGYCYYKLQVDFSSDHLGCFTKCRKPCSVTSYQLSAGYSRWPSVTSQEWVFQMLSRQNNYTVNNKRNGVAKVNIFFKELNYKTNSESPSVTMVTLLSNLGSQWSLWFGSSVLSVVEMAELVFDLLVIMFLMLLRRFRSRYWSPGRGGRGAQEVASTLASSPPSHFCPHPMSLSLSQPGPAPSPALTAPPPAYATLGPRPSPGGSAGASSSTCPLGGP
T1 sequence (P51168 1-640): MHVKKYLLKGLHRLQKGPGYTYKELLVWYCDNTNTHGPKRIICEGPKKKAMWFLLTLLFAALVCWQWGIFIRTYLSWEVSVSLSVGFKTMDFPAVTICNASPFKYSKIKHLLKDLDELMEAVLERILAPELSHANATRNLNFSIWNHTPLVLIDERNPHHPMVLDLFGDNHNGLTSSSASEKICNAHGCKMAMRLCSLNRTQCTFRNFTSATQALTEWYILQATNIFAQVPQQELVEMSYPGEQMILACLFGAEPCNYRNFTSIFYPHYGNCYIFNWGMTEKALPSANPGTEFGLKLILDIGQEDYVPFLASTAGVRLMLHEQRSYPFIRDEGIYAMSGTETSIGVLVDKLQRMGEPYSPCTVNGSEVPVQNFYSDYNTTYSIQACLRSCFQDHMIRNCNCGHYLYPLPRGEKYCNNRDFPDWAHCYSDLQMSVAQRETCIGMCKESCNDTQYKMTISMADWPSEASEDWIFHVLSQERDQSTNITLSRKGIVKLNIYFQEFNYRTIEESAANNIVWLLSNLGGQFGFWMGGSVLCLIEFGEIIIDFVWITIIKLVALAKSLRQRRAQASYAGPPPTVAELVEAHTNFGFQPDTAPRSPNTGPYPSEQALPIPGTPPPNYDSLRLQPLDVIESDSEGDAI
T1 sequence (P51170 1-649): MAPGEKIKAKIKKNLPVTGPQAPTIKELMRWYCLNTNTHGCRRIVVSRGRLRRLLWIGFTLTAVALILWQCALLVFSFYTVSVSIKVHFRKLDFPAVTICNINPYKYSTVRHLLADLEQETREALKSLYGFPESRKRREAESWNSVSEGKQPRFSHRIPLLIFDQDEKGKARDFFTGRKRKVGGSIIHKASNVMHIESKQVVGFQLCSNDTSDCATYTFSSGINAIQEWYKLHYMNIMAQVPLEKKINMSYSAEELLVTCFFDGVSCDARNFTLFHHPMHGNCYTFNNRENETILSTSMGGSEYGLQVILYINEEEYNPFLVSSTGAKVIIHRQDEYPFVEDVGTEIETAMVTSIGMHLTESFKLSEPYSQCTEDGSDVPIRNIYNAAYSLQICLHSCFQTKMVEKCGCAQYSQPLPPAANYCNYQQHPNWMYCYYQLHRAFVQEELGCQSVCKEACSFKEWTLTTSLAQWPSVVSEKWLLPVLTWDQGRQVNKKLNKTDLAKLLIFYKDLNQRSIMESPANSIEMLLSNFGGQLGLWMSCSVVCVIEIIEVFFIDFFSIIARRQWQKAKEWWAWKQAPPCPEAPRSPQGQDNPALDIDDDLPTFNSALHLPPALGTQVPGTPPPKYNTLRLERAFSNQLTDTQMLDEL
Test: Short-circuit current in well-differentiated HBE cells, amiloride response
Assay type: cell-based
Conditions: 25 μM pretreatment
Description: PAT1inh-B01 selectivity was studied by testing its effects on related SLC26A family anion transporters and the Cl^– channel TMEM16A. These measurements used a similar Cl^–/I^– exchange protocol, but FRT cells separately expressed each of the SLC26A family members or TMEM16A. […] PAT1inh-B01 selectivity was also tested by short-circuit current (Isc) in well-differentiated human bronchial epithelial (HBE) cells, which have a complex ion transport mechanism that includes cystic fibrosis transmembrane conductance regulator (CFTR), epithelial Na^+ channel (ENaC), and Ca^+2-activated chloride channels (CaCCs) ([13]). […] Potential PAT1inh-B01 cytotoxicity was studied in FRT cells.
Figure 3 PAT1inh-B01 selectivity and cytotoxicity. […] Cl^–/I^– exchange or I^– influx measured in FRT cells coexpressing YFP and SLC26A isoforms or TMEM16A, with data shown for 25 μM PAT1inh-B01, DMSO vehicle control, and 500 μM niflumic acid (positive control for SLC26A transporters) or 10 μM TMinh-23 (positive control for TMEM16A). […] (C) (left) Short-circuit current (Isc) in well-differentiated HBE cells measured in the absence (top) and presence (bottom) of 25 μM PAT1inh-B01. […]
YFP-based cellular assays of slc26a3, slc26a4, SLC26A9, and TMEM16A function were performed as described previously ([7]). […] The activities of ENaC, CFTR, and CaCC were determined using well-differentiated HBE cells as described previously ([13]). […]

## Cc1c(Br)c(C(F)(F)F)nn1CC(=O)N1CCc2nc3cc(-c4ccccc4)[nH]n3c(=O)c2C1 [PAT1inh-B01]
  effect on ENaC activity (Isc response to amiloride): no significant effect
